Values of other authors in patent US20200038317A1, “EXTENDED RELEASE, ABUSE DETERRENT PHARMACEUTICAL COMPOSITIONS” (SpecGX LLC, priority 2012, published 2020).

Conditions: at 25° C.

O=C(O)CC(O)(CC(=O)O)C(=O)O [citric acid]
relative humidity at which the plasticizer deliquesces: about 75 % relative humidity
